Experimental data from US20150017673A1, “COMPOSITIONS AND METHODS FOR DRUG-SENSITIZATION OR INHIBITION OF A CANCER CELL” (priority 2012, published 2015).
Like-named read-outs stand apart in the source and are kept apart here.

What was measured:
lymphoma cell line G3 = test: Cell growth assay (resazurin fluorescence) on CHOP-resistant G3 NHL cells; format: cell-based, human
Description: (§1) Compositions were tested on CHOP-resistant G3 NHL cells that had been cultivated in RPMI medium for five days. Prior to assay, the cells were counted by haemocytometer and cell concentration standardized to 625,000 cells/ml. Test drugs were solubilized in 100% DMSO and then diluted to final assay concentration with 0.1M phosphate buffered saline (PBS) and a final DMSO concentration of 0.5%. Cells were added to assay plates containing the test drugs (rifabutin+148 ng/ml, 74 ng/ml, 37 ng/ml, or 0 ng/ml doxorubicin) and allowed to incubate for 96 hours at 37° C. and 5% CO2. The metabolic dye rezasurin was added to the wells of the assay plate at a final concentration of 20 μg/ml and the plates were incubated for an additional 24 hours. The plates were then read in a BMG Polarstar plate reader at wavelength (573-605) and the data plotted as OD versus increasing dilutions (i.e. decreasing total amounts) of rifabutin derivative concentration.

[1] = tested on: multi-drug resistant ovarian carcinoma cell line SK-OV3; test: Cell growth assay on SK-OV3 cells; format: cell-based, human; settings: for IC50: Homo sapiens, SK-OV-3
Description: as §1
(§2) In these experiments, the following cell lines were used: CHOP-resistant NHL cell line G3, CHOP-sensitive NHL cell line CRL2631, the multi-drug resistant sarcoma cell line MES-SA-Dx5; multi-drug-resistant breast cancer cell line MDA-MB-231, multi-drug resistant ovarian carcinoma cell line SK-OV3, multi-drug resistant ovarian cancer cell line NCI/ADR-RES, drug-sensitive ovarian cancer cell line OVCAR-5, and multi-drug resistant ovarian cancer cell line OVCAR-3. […]

ovarian cancer OVCAR-8 = test: Cell growth assay on OVCAR-8 cells; format: cell-based; settings: for IC50: Homo sapiens
Description: as §1
(§3) Additional cell lines used include: ovarian cancer OVCAR-8, T lymphoblastoid leukemia MOLT-4, dexamethasone-resistant multiple myeloma MM.1R, myeloid leukemia cells HL-60, osteosarcoma cells U-2 OS, and myeloma RPMI 8226.

[2] = tested on: osteosarcoma cells U-2 OS; test: Cell growth assay on U-2 OS cells; format: cell-based; settings: for IC50: Homo sapiens, U2OS
Description: as §1, §3

[3] = tested on: myeloid leukemia cells HL-60; test: Cell growth assay on HL-60 cells; format: cell-based; settings: for IC50: Homo sapiens
Description: as §1, §3

myeloma RPMI 8226 = test: Cell growth assay on RPMI 8226 cells; format: cell-based; settings: for IC50: Homo sapiens
Description: as §1, §3

[4] = tested on: multi-drug resistant sarcoma cell line MES-SA-Dx5; test: Cell growth assay on MES-SA-Dx5 cells; format: cell-based; settings: MES-SA-Dx5, uterus sarcoma
Description: as §1
(§4) In these experiments, the following cell lines were used: CHOP-resistant NHL cell line G3, CHOP-sensitive NHL cell line CRL2631, the multi-drug resistant sarcoma cell line MES-SA-Dx5; multi-drug-resistant breast cancer cell line MDA-MB-231, multi-drug resistant ovarian carcinoma cell line SK-OV3, multi-drug resistant ovarian cancer cell line NCI/ADR-RES, drug-sensitive ovarian cancer cell line OVCAR-5, and multi-drug resistant ovarian cancer cell line OVCAR-3.
as §3

[5] = tested on: multi-drug-resistant breast cancer cell line MDA-MB-231; test: Cell growth assay on MDA-MB-231 cells; format: cell-based; settings: MDA-MB-231, breast carcinoma
Description: as §1, §4, §3

[6] = tested on: multi-drug resistant ovarian cancer cell line OVCAR-3; test: Cell growth assay on OVCAR-3 cells; format: cell-based; settings: OVCAR-3, ovarian carcinoma
Description: as §1, §2

[7] = tested on: drug-sensitive ovarian cancer cell line OVCAR-5; test: Cell growth assay on OVCAR-5 cells; format: cell-based; settings: OVCAR-5, ovarian carcinoma
Description: as §1, §4, §3

[8] = tested on: multi-drug resistant ovarian cancer cell line NCI/ADR-RES; test: Cell growth assay on NCI/ADR-RES cells; format: cell-based; settings: NCI/ADR-RES, ovarian carcinoma
Description: as §1, §4, §3

[9] = mice treated with RTI-79 with or without DOX
Description: Swiss mice were dosed with levels equal to and exceeding that of intended doses.

[10] = tested on: multi-drug resistant ovarian cancer cell line (NCI/ADR-RES); test: NCI/ADR-RES xenograft efficacy studies in nude mice; format: in vivo; settings: DOXIL 7 mg/kg i.v. + RTI-79 25 mg/kg oral
Text: In a sixth efficacy study, we generated xenografts of multi-drug resistant ovarian cancer cell line (NCI/ADR-RES) by implantation of NCI/ADR-RES cell xenografts in the left and right flanks of nude mice, resulting in two tumors per mice. […] Tumor size was monitored.
In a seventh efficacy study, we generated xenografts of multi-drug resistant ovarian cancer cell line (NCI/ADR-RES) by implantation of NCI/ADR-RES cells xenografts in the left and right flanks of nude mice, resulting in two tumors per mouse. […] Tumor size was monitored.

ROS in G3 lymphoma cells = test: Intracellular ROS (CellROX, flow cytometry) in G3 cells; format: cell-based, human
Description: (§5) Cells were then stained with the fluorescent ROS indicator, CellROX, and subjected to flow cytometry to quantitate total intracellular ROS.
The electron transport chain (ETC) is known to be a primary generator of ROS in the cell. Most of the ROS is generated by Complexes I and III of the ETC Inhibition of Complex I results in electrons piling up and leaking to react with oxygen to produce ROS.
(§6) All samples were analyzed at the same time in flow cytometry.

[11] = tested on: ROS in ADR-RES ovarian cells; test: Intracellular ROS (CellROX, flow cytometry) in ADR-RES cells; format: cell-based; settings: 10 uM, 2 hrs
Text: as §5

[12] = tested on: ROS in OVCAR8 ovarian cells; test: Intracellular ROS (CellROX, flow cytometry) in OVCAR8 cells; format: cell-based; settings: 10 uM, 2 hrs, degree much less than in resistant lines
Text: as §5

calcium in G3 cells = test: Calcium mobilization (Fluo-4AM, flow cytometry); format: cell-based, human
Description: MDR/P-gp activity is closely associated with calcium status in the cell, so calcium modulators were tested for effects on ROS. […] Relatively Dox-sensitive lymphoma (CRL2631, 10S, WSU) and ovarian carcinoma (OVCAR8) and more Dox-resistant lymphoma (G3R,10R, WSUR) and ovarian carcinoma (ADR) were treated with 10 uM […] for 2 hrs. […] Cells were co-stained with the cell-permeable red fluorescent ROS indicator, CellROX, and cell-permeable green fluorescent calcium indicator, Fluo-4AM, and then subjected to flow cytometry to quantitate changes in ROS and calcium levels.
as §6

MMP2 = MMP2 secretion ELISA in U2-OS cells; format: cell-based; settings: 5 uM RTI-79, U2-OS cells; reduced from 22.4
VEGF = VEGF secretion ELISA in U2-OS cells; format: cell-based; settings: RTI-79, U2-OS cells; decrease from 998
[13] = Time to maximal RTI-79 plasma concentration; format: in vivo; settings: after administration
[14] = tested on: primary human fibroblasts; settings: with and without 2 uM Dox
ABCB1 pumps = ABCB1 pumps (Homo sapiens, UniProt P08183)
Chain of ABCB1 pumps (P08183 whole entry): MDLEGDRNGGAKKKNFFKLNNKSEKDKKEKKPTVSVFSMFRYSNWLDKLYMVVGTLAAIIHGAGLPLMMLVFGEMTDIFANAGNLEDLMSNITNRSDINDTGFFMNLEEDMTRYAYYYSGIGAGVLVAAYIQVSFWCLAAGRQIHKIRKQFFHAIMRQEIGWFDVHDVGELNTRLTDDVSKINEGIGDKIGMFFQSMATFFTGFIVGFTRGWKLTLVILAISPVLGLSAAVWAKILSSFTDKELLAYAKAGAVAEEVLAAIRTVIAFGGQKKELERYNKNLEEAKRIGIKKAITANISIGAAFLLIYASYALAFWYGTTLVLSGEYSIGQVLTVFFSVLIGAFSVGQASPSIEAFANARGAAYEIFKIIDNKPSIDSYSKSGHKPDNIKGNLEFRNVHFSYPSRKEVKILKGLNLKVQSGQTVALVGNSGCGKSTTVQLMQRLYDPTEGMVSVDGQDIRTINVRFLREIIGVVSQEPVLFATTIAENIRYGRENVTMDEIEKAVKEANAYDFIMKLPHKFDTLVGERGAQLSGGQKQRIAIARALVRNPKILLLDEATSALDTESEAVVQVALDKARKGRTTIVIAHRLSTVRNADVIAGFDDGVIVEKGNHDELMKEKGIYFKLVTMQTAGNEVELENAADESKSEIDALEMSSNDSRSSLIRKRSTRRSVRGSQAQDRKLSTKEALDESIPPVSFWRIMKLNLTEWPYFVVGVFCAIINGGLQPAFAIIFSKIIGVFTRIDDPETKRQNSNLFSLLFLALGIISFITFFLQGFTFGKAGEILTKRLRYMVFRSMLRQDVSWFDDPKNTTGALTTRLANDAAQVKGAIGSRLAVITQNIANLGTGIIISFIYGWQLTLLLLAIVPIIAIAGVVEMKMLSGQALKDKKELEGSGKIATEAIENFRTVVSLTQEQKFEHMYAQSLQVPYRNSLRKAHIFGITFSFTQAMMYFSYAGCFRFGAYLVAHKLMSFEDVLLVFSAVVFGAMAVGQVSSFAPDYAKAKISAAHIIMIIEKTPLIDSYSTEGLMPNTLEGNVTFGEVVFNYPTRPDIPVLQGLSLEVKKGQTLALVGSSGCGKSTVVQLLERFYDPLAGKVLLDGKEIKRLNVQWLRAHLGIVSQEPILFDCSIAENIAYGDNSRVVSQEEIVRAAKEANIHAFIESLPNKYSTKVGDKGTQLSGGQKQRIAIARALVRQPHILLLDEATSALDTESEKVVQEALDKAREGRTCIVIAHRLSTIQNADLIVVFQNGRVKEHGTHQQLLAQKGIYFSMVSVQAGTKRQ

[15] = therapeutic drug alone, read-out: IC50
[16] = therapeutic drug with Rifabutin, read-out: IC50 (μM) with Rifabutin

## O=C1c2c(O)ccc(O)c2C(=O)c2c(NCCNCCO)ccc(NCCNCCO)c21 [Mitoxantrone, mitoxantrone]
Lymphoma cell line G3; Homo sapiens, therapeutic drug alone, G3, read-out: IC50
  IC50: 0.46 µM
Lymphoma cell line G3; Homo sapiens, therapeutic drug with Rifabutin, G3, read-out: IC50 (μM) with Rifabutin
  IC50: 0.04 µM
Lymphoma cell line G3; with vs without Rifabutin, G3
  Fold increase in potency: 11.5 fold
[1]; therapeutic drug alone, SK-OV3, read-out: IC50
  IC50: > 32 µM
[1]; therapeutic drug with Rifabutin, SK-OV3, read-out: IC50 (μM) with Rifabutin
  IC50: 12.3 µM
[1]; with vs without Rifabutin, SK-OV3
  Fold increase in potency: >2.6 fold
Ovarian cancer OVCAR-8; [15]
  IC50: 14 µM
Ovarian cancer OVCAR-8; [16]
  IC50: 3 µM
Ovarian cancer OVCAR-8; with vs without Rifabutin
  Fold increase in potency: 4.7 fold
[2]; [15]
  IC50: 0.14 µM
[2]; [16]
  IC50: 0.06 µM
[2]; with vs without Rifabutin
  Fold increase in potency: 2.3 fold

## CC(=O)O[C@H]1C(=O)[C@@]2(C)[C@H]([C@H](OC(=O)c3ccccc3)[C@]3(O)C[C@H](OC(=O)[C@H](O)[C@@H](NC(=O)c4ccccc4)c4ccccc4)C(C)=C1C3(C)C)[C@]1(OC(C)=O)CO[C@@H]1C[C@@H]2O [Paclitaxel, paclitaxel]
[3]; [15]
  IC50: 0.4 µM
[3]; [16]
  IC50: 0.2 µM
[3]; with vs without Rifabutin
  Fold increase in potency: 2 fold
Myeloma RPMI 8226; [15]
  IC50: 1 µM
Myeloma RPMI 8226; [16]
  IC50: 0.89 µM
Myeloma RPMI 8226; with vs without Rifabutin
  Fold increase in potency: 1.1 fold

## COC1C=COC2(C)Oc3c(C)c(O)c4c(c3C2=O)C2=NC3(CCN(C(=O)OCC(C)C)CC3)NC2=C(NC(=O)C(C)=CC=CC(C)C(O)C(C)C(O)C(C)C(OC(C)=O)C1C)C4=O (stereo not shown) [RTI-79, 4-deoxy-3,4[2-spiro-[1-(isobutyloxycarbonyl)-piperidin-4-yl]]-(1H)-imidazo-(2,5-dihydro)rifamycin S]
Lymphoma cell line G3; G3, lymphoma B cells
  Magnitude of potentiation in combination with doxorubicin: ++ (potentiation between 2.1 to 5 fold increase)
Lymphoma cell line G3; analog alone, lymphoma cell line G3, read-out: IC50
  IC50: 43 µM
Lymphoma cell line G3; with 1 μM doxorubicin, lymphoma cell line G3, read-out: IC50 (μM) with doxorubicin (1 μM)
  IC50: 1.14 µM
[4]
  Magnitude of potentiation in combination with doxorubicin: ++ (potentiation between 2.1 to 5 fold increase)
[5]
  Magnitude of potentiation in combination with doxorubicin: + (potentiation between 1.2 to 2.0 fold increase)
[1]; SK-OV3, ovarian carcinoma
  Magnitude of potentiation in combination with doxorubicin: +++ (potentiation greater than 5 fold increase)
[6]
  Magnitude of potentiation in combination with doxorubicin: + (potentiation between 1.2 to 2.0 fold increase)
[7]
  Magnitude of potentiation in combination with doxorubicin: + (potentiation between 1.2 to 2.0 fold increase)
[8]
  Magnitude of potentiation in combination with doxorubicin: ++ (potentiation between 2.1 to 5 fold increase)
[9]
  heart histology (H&E), complete blood count and manual differential: no significant differences
[10]; seventh study (multiple, large tumors), after 46 days
  tumor volume lower than in mice receiving only DOXIL: 55%
[10]; seventh study
  tumor volume reduction during the course of the study: 50%
[10]; sixth study, after 41 days
  tumor volume lower than in mice receiving only DOXIL: 66%
ROS in G3 lymphoma cells; 10 uM RTI-79, 0 to 30 minutes
  time to first increase in ROS: 1 min
ROS in G3 lymphoma cells; 10 uM, 2 hrs
  total intracellular ROS: induced ROS
[11]
  total intracellular ROS: induced ROS
[12]
  total intracellular ROS: induced ROS
Calcium in G3 cells; Dox-resistant cells (G3R, 10R, WSUR), 10 uM, 2 hrs, FIG. 41B/41C
  calcium mobilization: induced both ROS and calcium mobilization
Calcium in G3 cells; G3 cells, 10 uM RTI-79, 0 to 30 minutes
  onset of calcium mobilization: > 15 min
MMP2
  MMP2 secretion: 10.5 ng/million cells
VEGF
  VEGF secretion: 436 pg/million cells
[13]
  time to maximal plasma concentration: ≤ 3 h
[14]
  comparative cytotoxicity to normal cells: not toxic to normal cells
ABCB1 pumps; NCI/ADR-RES and G3 cells
  inhibition of efflux pumps: clear inhibition of efflux pumps
ABCB1 pumps; calcein-AM efflux
  rank as inhibitor of ABCB1 among rifabutin derivatives: strongest inhibitor
